According to patent US8481586B2, “Pyrrolo[2,3-a] carbazoles and use thereof as PIM kinase inhibitors” (Centre National de la Recherche Scientifique, priority 2008, dated 2013):

Assays:
Experiment in all cases: kinase panel residual activity test
Format in all cases: biochemical
Settings in all cases: compound at 10 μM
PDK1 = PDK1 (Homo sapiens (Human), UniProt O15530)
Source text: (§1) MKK1, ERK 1, ERK 2, JNK1, JNK2, JNK3, p38a MAPK, p38b MAPK, p38g MAPK, p38s MAPK, ERK8, RSK1, RSK2, PDK1, PKBa, PKBb, SGK1, S6K1, PKA, ROCK2, PRK2, PKCa, PKC zeta, PKD1, MSK1, MNK1, MNK2, MAPKAP-K2, MAPKAP-K3, PRAK, CAMKKa, CAMKKb, CAMK1, SmMLCK, PHK, CHK1, CHK2, GSK3b, CDK2/cyclin A, PLK1, PLK1 (Okadaic acid), Aurora B, Aurora C, AMPK, MARK3, BRSK2, MELK, CK1, CK2, NEK2a, NEK6, NEK7, IKKb, PIM-1, PIM-2, PIM-3, SRPK1, MST2, EF2K, HIPK2, HIPK3, PAK-4, PAK5, PAK6, Src, Lck, CSK.

MST2 = MST2 (Homo sapiens (Human), UniProt Q13188)
Source text: as §1

Aurora C = Aurora C (Homo sapiens (Human), UniProt Q9UQB9)
Source text: as §1

CHK1 = CHK1 (Homo sapiens (Human), UniProt O14757)
Source text: as §1

MAPKAP-K3 = MAPKAP-K3 (Homo sapiens (Human), UniProt Q16644)
Source text: as §1

S6K1 = S6K1 (Homo sapiens (Human), UniProt P23443)
S6K1, sequence (P23443 whole entry, species assumed): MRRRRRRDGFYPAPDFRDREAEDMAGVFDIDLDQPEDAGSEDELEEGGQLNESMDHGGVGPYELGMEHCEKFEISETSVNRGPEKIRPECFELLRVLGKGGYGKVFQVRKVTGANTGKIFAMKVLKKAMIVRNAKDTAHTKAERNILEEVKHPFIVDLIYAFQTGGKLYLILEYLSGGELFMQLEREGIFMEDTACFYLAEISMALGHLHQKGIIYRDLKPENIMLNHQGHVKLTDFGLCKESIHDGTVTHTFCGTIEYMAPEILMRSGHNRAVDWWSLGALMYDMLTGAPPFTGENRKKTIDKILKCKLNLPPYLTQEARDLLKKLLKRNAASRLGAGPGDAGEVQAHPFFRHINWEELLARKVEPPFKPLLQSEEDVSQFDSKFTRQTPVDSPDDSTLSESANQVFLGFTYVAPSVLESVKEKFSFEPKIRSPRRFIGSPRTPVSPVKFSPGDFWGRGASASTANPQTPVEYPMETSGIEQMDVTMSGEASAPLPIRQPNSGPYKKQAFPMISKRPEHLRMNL
Source text: as §1

CAMKKb = CAMKKb (Homo sapiens (Human), UniProt Q96RR4)
Source text: as §1

PKC zeta = PKC zeta (Homo sapiens (Human), UniProt Q05513)
PKC zeta, sequence (Q05513 whole entry): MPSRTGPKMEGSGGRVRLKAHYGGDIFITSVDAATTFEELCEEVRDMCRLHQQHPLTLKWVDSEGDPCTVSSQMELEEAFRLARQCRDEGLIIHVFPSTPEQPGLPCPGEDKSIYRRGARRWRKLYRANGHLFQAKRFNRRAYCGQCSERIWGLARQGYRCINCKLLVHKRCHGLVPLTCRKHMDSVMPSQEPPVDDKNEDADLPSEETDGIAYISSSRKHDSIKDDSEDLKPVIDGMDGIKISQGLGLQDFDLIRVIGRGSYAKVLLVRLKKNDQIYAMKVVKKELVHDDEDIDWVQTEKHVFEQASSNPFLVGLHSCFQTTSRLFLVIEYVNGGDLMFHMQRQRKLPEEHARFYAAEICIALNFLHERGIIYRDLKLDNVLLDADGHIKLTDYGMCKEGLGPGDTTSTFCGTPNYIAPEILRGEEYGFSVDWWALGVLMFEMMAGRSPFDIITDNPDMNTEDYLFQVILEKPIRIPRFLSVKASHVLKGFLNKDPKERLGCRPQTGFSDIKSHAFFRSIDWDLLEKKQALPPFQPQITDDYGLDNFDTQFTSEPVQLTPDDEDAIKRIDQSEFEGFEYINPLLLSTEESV
Source text: as §1

NEK6 = NEK6 (Homo sapiens (Human), UniProt Q9HC98)
Source text: as §1

GSK3b = GSK3b (Homo sapiens (Human), UniProt P49841)
Source text: as §1

EF2K = EF2K (Homo sapiens (Human), UniProt O00418)
Source text: as §1

HIPK3 = HIPK3 (Homo sapiens (Human), UniProt Q9H422)
Source text: as §1

MNK2 = MNK2 (Homo sapiens (Human), UniProt Q9HBH9)
MNK2, sequence (Q9HBH9 whole entry, species assumed): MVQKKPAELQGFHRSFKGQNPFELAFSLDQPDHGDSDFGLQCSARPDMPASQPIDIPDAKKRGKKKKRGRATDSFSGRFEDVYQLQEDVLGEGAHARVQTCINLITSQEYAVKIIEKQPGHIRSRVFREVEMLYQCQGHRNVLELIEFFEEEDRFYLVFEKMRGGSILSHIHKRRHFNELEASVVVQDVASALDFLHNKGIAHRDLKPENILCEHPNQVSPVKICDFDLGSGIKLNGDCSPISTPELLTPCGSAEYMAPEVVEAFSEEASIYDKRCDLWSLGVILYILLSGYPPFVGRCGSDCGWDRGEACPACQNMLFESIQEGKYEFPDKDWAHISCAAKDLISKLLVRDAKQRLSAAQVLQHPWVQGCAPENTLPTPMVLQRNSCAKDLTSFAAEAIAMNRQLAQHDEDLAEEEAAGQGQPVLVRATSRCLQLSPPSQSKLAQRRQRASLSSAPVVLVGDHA
Source text: as §1

ERK1 = ERK1 (Homo sapiens (Human), UniProt P27361)
ERK1, sequence (P27361 whole entry, species assumed): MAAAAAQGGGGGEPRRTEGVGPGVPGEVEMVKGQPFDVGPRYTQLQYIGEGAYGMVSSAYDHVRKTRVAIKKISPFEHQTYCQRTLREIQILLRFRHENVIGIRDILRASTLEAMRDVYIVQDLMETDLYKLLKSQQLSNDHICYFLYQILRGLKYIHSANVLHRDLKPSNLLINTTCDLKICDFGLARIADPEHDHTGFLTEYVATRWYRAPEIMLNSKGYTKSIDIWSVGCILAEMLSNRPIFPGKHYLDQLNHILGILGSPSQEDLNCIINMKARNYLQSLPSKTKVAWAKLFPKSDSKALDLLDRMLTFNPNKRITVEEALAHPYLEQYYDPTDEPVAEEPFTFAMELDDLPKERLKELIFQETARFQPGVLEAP
Source text: as §1

PHK = system: PHK
Source text: as §1

PRAK = PRAK (Homo sapiens (Human), UniProt Q8IW41)
Source text: as §1

MELK = MELK (Homo sapiens (Human), UniProt Q14680)
Source text: as §1

PKCa = PKCa (Homo sapiens (Human), UniProt P17252)
Source text: as §1

BRSK2 = BRSK2 (Homo sapiens (Human), UniProt Q8IWQ3)
Source text: as §1

HIPK2 = HIPK2 (Homo sapiens (Human), UniProt Q9H2X6)
Source text: as §1

NEK7 = NEK7 (Homo sapiens (Human), UniProt Q8TDX7)
NEK7, sequence (Q8TDX7 whole entry, species assumed): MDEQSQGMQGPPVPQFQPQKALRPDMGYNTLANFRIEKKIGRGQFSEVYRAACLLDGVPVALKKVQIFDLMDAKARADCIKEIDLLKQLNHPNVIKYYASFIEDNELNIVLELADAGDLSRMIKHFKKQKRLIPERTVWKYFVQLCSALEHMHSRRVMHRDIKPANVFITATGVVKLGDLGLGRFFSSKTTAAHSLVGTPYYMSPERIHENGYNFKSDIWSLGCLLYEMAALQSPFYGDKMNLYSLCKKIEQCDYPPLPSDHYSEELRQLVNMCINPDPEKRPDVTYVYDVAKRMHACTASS
Source text: as §1

Aurora B = Aurora B (Homo sapiens (Human), UniProt Q96GD4)
Aurora B, sequence (Q96GD4 whole entry): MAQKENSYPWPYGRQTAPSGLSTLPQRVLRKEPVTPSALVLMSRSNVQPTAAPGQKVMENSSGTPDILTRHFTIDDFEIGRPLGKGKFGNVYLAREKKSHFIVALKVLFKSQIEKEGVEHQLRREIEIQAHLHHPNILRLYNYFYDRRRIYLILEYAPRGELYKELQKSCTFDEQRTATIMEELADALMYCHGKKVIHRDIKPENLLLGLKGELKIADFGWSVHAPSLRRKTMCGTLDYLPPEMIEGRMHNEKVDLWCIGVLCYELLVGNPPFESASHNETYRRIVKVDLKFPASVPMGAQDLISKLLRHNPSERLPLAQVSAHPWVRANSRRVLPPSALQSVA
Source text: as §1

SmMLCK = system: SmMLCK
Source text: as §1

IKKb = IKKb (Homo sapiens (Human), UniProt O14920)
Source text: as §1

CAMKKa = CAMKKa (Homo sapiens (Human), UniProt Q8N5S9)
Source text: as §1

MARK3 = MARK3 (Homo sapiens (Human), UniProt P27448)
Source text: as §1

PAK5 = PAK5 (Homo sapiens (Human), UniProt Q9P286)
Source text: as §1

SRPK1 = SRPK1 (Homo sapiens (Human), UniProt Q96SB4)
SRPK1, sequence (Q96SB4 whole entry, species assumed): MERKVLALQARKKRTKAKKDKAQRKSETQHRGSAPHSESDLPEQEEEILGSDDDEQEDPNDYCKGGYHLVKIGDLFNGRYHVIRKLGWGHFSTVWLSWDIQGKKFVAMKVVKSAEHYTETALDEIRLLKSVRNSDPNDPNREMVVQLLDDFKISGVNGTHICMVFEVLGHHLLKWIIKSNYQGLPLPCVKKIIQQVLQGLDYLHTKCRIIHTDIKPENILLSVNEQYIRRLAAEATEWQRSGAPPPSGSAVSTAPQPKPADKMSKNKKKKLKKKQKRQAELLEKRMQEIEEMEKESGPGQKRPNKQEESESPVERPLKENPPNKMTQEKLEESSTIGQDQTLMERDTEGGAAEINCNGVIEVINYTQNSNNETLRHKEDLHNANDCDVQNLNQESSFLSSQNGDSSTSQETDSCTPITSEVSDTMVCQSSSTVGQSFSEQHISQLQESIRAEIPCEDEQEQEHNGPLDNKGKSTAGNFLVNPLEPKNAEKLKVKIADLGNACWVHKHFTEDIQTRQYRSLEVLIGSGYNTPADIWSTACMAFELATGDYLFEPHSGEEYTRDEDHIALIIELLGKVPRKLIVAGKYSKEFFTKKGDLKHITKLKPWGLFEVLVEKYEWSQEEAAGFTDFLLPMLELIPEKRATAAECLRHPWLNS
Source text: as §1

CSK = CSK (Homo sapiens (Human), UniProt P41240)
Source text: as §1

PKA = PKA (Homo sapiens (Human), UniProt P17612)
Source text: as §1

MAPKAP-K2 = MAPKAP-K2 (Homo sapiens (Human), UniProt P49137)
Source text: as §1

Src = Src (Homo sapiens (Human), UniProt P12931)
Src, sequence (P12931 whole entry, looked up, species assumed): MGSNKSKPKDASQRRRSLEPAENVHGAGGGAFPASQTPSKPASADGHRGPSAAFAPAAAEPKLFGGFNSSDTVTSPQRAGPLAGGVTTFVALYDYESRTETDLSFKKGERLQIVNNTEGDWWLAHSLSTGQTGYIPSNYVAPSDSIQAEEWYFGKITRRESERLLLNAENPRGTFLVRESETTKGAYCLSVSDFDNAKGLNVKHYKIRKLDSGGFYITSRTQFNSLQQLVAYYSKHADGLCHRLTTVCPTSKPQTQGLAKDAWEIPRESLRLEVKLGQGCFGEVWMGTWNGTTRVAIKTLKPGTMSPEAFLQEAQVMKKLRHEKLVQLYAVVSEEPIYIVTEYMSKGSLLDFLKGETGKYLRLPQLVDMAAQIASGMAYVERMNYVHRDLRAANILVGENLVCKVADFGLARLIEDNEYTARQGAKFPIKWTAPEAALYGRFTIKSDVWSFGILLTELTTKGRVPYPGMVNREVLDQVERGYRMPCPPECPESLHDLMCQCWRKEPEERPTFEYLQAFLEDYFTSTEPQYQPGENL
Source text: as §1

ERK8 = ERK8 (Homo sapiens (Human), UniProt Q8TD08)
ERK8, sequence (Q8TD08 whole entry, species assumed): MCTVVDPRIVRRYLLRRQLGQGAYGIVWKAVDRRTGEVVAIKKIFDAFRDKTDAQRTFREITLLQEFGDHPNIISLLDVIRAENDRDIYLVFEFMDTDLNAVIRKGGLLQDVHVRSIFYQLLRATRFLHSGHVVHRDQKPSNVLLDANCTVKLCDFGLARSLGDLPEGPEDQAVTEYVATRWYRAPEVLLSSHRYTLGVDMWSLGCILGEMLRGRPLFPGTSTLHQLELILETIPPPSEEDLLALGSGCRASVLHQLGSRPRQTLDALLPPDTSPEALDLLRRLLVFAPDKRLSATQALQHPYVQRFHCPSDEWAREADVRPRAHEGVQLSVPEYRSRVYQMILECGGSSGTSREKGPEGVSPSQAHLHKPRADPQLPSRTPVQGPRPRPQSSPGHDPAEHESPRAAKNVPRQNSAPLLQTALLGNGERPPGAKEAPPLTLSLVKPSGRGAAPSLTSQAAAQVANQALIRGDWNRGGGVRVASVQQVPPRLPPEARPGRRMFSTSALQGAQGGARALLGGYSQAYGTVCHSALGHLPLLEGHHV
Source text: as §1

NEK2a = NEK2a (Homo sapiens (Human), UniProt P51955)
Source text: as §1

SGK1 = SGK1 (Homo sapiens (Human), UniProt O00141)
Source text: as §1

PKD1 = PKD1 (Homo sapiens (Human), UniProt Q15139)
Source text: as §1

MSK1 = MSK1 (Homo sapiens (Human), UniProt O75582)
Source text: as §1

AMPK = system: AMPK
Source text: as §1

PDK1, sequence (O15530 whole entry): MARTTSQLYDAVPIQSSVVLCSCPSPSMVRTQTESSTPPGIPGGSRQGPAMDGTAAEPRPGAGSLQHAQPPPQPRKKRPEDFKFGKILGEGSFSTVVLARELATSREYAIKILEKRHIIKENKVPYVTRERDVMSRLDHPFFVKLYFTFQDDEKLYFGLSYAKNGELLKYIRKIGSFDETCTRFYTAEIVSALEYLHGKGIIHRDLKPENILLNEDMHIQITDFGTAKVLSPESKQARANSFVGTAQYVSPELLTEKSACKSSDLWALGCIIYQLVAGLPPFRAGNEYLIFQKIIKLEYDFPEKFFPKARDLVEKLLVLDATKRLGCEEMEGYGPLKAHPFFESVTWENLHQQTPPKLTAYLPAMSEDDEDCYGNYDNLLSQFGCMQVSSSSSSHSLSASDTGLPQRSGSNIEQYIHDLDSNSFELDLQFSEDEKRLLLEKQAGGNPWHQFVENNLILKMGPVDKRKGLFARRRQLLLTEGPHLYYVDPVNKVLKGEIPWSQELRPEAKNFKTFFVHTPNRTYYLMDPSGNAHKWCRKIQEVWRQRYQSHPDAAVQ

Row | SMILES | remaining activity at 10 µM (PDK1) | remaining activity at 10 µM (MST2) | remaining activity at 10 µM (Aurora C) | remaining activity at 10 µM (CHK1) | remaining activity at 10 µM (MAPKAP-K3) | remaining activity at 10 µM (S6K1) | remaining activity at 10 µM (CAMKKb) | remaining activity at 10 µM (PKC zeta) | remaining activity at 10 µM (NEK6) | remaining activity at 10 µM (GSK3b) | remaining activity at 10 µM (EF2K) | remaining activity at 10 µM (HIPK3) | remaining activity at 10 µM (MNK2) | remaining activity at 10 µM (ERK1) | % residual activity PHK (PHK) | remaining activity at 10 µM (PRAK) | remaining activity at 10 µM (MELK) | remaining activity at 10 µM (PKCa) | remaining activity at 10 µM (BRSK2) | remaining activity at 10 µM (HIPK2) | further results
1 | NC(=O)c1c[nH]c2c1ccc1c3ccccc3[nH]c12 [Example 5, 1,10-dihydropyrrolo[2,3-a]carbazole-3-carboxamide] | 67% | 76% | 61% | 113% | 75% | 72% | 79% | 78% | 83% | 91% | 92% | 87% | 57% | 71% | 43% | 85% | 80% | 80% | 32% | 42% | remaining activity at 10 µM (NEK7): 89%; remaining activity at 10 µM (Aurora B): 65%; % residual activity SmMLCK (SmMLCK): 69%; remaining activity at 10 µM (IKKb): 80%; remaining activity at 10 µM (CAMKKa): 75%; remaining activity at 10 µM (MARK3): 73%; remaining activity at 10 µM (PAK5): 70%; remaining activity at 10 µM (SRPK1): 93%; remaining activity at 10 µM (CSK): 65%; remaining activity at 10 µM (PKA): 80%; remaining activity at 10 µM (MAPKAP-K2): 92%; remaining activity at 10 µM (Src): 96%; remaining activity at 10 µM (ERK8): 46%; remaining activity at 10 µM (NEK2a): 106%; remaining activity at 10 µM (SGK1): 71%; remaining activity at 10 µM (PKD1): 19%; remaining activity at 10 µM (MSK1): 91%; % residual activity AMPK (AMPK): 85%
2 | O=Cc1c[nH]c2c1ccc1c3ccccc3[nH]c12 [Example 3, 1,10-dihydropyrrolo[2,3-a]carbazole-3-carbaldehyde] | 76% | 63% | 79% | 97% | 69% | 38% | 56% | 83% | 78% | 88% | 90% | 64% | 55% | 87% | 33% | 72% | 61% | 84% | 22% | 25% | remaining activity at 10 µM (NEK7): 89%; remaining activity at 10 µM (Aurora B): 68%; % residual activity SmMLCK (SmMLCK): 60%; remaining activity at 10 µM (IKKb): 71%; remaining activity at 10 µM (CAMKKa): 42%; remaining activity at 10 µM (MARK3): 88%; remaining activity at 10 µM (PAK5): 87%; remaining activity at 10 µM (SRPK1): 84%; remaining activity at 10 µM (CSK): 74%; remaining activity at 10 µM (PKA): 60%; remaining activity at 10 µM (MAPKAP-K2): 84%; remaining activity at 10 µM (Src): 85%; remaining activity at 10 µM (ERK8): 20%; remaining activity at 10 µM (NEK2a): 88%; remaining activity at 10 µM (SGK1): 64%; remaining activity at 10 µM (PKD1): 28%; remaining activity at 10 µM (MSK1): 71%; % residual activity AMPK (AMPK): 59%
3 | c1ccc2c(c1)[nH]c1c2ccc2cc[nH]c21 [Example 2, 1,10-dihydropyrrolo[2,3-a]carbazole] | 86% | 82% | 85% | 123% | 89% | 89% | 93% | 91% | 90% | 111% | 101% | 97% | 95% | 108% | 90% | 97% | 93% | 111% | 58% | 59% | remaining activity at 10 µM (NEK7): 96%; remaining activity at 10 µM (Aurora B): 67%; % residual activity SmMLCK (SmMLCK): 86%; remaining activity at 10 µM (IKKb): 106%; remaining activity at 10 µM (CAMKKa): 76%; remaining activity at 10 µM (MARK3): 116%; remaining activity at 10 µM (PAK5): 82%; remaining activity at 10 µM (SRPK1): 90%; remaining activity at 10 µM (CSK): 98%; remaining activity at 10 µM (PKA): 95%; remaining activity at 10 µM (MAPKAP-K2): 118%; remaining activity at 10 µM (Src): 98%; remaining activity at 10 µM (ERK8): 55%; remaining activity at 10 µM (NEK2a): 104%; remaining activity at 10 µM (SGK1): 82%; remaining activity at 10 µM (PKD1): 83%; remaining activity at 10 µM (MSK1): 90%; % residual activity AMPK (AMPK): 80%
